Results reported in patent publication EP0403158A2, “Imidazolyl-alkenoic acids” (SMITHKLINE BEECHAM CORPORATION, priority 1989, dated 1990).

Tests used:
[1] = system: pressor response to exogenous angiotensin II; assay: Inhibition of pressor response to angiotensin II in conscious rats; type: in vivo; settings: Rattus norvegicus, i.v., change in mean arterial pressure after intravenous 250 mg/kg angiotensin II, read-out: IC50 (dose of compound needed to produce 50% inhibition of the control response to angiotensin II)
Protocol: (§1) Angiotensin II antagonist activity of the compounds of Formulas (I) and (IA) is assessed by in vitro and in vivo methods. In vitro antagonist activity is determined by the ability of the compounds to compete with ¹²⁵I-angiotensin II for binding to vascular angiotensin II receptors and by their ability to antagonize the contractile response to angiotensin II in the isolated rabbit aorta. In vivo activity is evaluated by the efficacy of the compounds to inhibit the pressor response to exogenous angiotensin II in conscious rats and to lower blood pressure in a rat model of renin dependent hypertension.
Rats are prepared with indwelling femoral arterial and venous catheters and a stomach tube (Gellai et al., Kidney Int. 15:419, 1979). Two to three days following surgery the rats are placed in a restrainer and blood pressure is continuously monitored from the arterial catheter with a pressure transducer and recorded on a polygraph. The change in mean arterial pressure in response to intravenous injections of […] angiotensin II is compared at various time points prior to and following the administration of the compounds intravenously or orally at doses of 3 to 300 mg/kg. The dose of compound needed to produce 50% inhibition of the control response to angiotensin II (IC₅₀) is used to estimate the potency of the compounds. […]

[2] = system: mean arterial pressure in conscious rats made renin dependent hypertensive; assay: Antihypertensive activity in renal artery ligated (renin dependent hypertensive) conscious rats; type: in vivo; settings: Rattus norvegicus, iv, seven to eight days following ligation, read-out: IC30 (dose of compound needed to reduce mean arterial pressure by 30 mm Hg)
Protocol: as §1
The antihypertensive activity of the compounds is measured by their ability to reduce mean arterial pressure in conscious rats made renin dependent hypertensive by ligation of the left renal artery (Cangiano et al., J. Pharmacol. Exp. Ther. 208:310, 1979). Renal artery ligated rats are prepared with indwelling catheters as described above. Seven to eight days following renal artery ligation, the time at which plasma renin levels are highest, the conscious rats are placed in restrainers and mean arterial pressure is continuously recorded prior to and following the administration of the compounds intravenously or orally. The dose of compound needed to reduce mean arterial pressure by 30 mm Hg (IC₃₀) is used as an estimate of potency. […]

CCCCc1ncc(/C=C(\Cc2ccccc2)C(=O)O)n1Cc1ccccc1Cl [(E)-3-[2-n-butyl-1-{(2-chlorophenyl)methyl}-1H-imidazol-5-yl]-2-benzyl-2-propenoic acid]
ED50 [1]: 14 mg/kg
ED (30 mm Hg) [2]: 10 mg/kg
